# Laboratory results from publication PMC2783590 (Nature chemical biology, 2009).
# How the values were obtained:
# [1] = test system: myr-HA-asAkt1-KD or myr-HA-asAkt2-KD (Thr308, Ser473) phosphorylation; assay: HEK293 cells expressing kinase dead; type: cell-based, Human; settings: 30 min, 2.5 µM PrINZ or 10 µM 3-IB-PP1
# [2] = test system: Akt (Thr308, Ser473) and GSK3β (Ser9) phosphorylation; type: cell-based, Human; settings: serum-starved HEK293, 20 min drug then 50 ng/ml IGF-1 10 min
# [3] = test system: HA-asAkt1 (Thr308, Ser473) phosphorylation; assay: HEK293 cells transfected with HA-asAkt1, immunoblotting; type: cell-based, Human; settings: 30 min, serially diluted inhibitor
# [4] = test system: GSK3β (Ser9) phosphorylation; assay: HEK293 cells transfected with myr-HA-asAkt1, immunoblotting; type: cell-based, Human; settings: myr-HA-asAkt1, 30 min, various concentrations
# PC-3 tumor = settings: PC-3 xenograft; cited from earlier work
# [5] = test system: Akt membrane localization; assay: Immunofluorescence of Akt in untransfected HEK293 cells; type: cell-based, Human
# 3T3-Akt1 tumor = settings: 3T3-Akt1 xenograft; cited from earlier work
# MiaPaCa-2 tumor = settings: MiaPaCa-2 xenograft; cited from earlier work
# [6] = test system: HA-asAkt1/2/3 (Thr308, Ser473) phosphorylation; type: cell-based, Human; settings: then 2.5 µM PrINZ 30 min; for hyperphosphorylation induced by PrINZ (Thr308 and Ser473): pre-treatment 10 min; for PrINZ induced Thr308 phosphorylation / PrINZ induced hyperphosphorylation at Ser473: pre-treatment 10 min (10 µM BX-795, 2.5 µM PP242)
# 220 purified kinases = assay: SelectScreen profiling, whole panel; type: biochemical; settings: 1 µM
# [7] = test system: Akt (Thr308) and rpS6 (Ser240/244) phosphorylation in L6 cells; assay: Insulin stimulated L6 cells, immunoblotting; type: cell-based; settings: serum-starved, 20 min drug then 100 nM insulin 10 min
# Akt = settings: cited from earlier work
# [8] = test system: myr-HA-asAkt1 (Thr308, Ser473) phosphorylation; type: cell-based, Human; settings: 2.5 µM PIK90 10 min, then 2.5 µM PrINZ 30 min
# myr-HA-asAkt3 = myr-HA-asAkt3 (Homo sapiens, UniProt Q9Y243, M225G); assay: In vitro IP kinase assay for Akt variants; type: biochemical; settings: myr-HA-asAkt3 expressed in HEK293T cells, immunoprecipitated; 50 µM ATP
# Sequence of myr-HA-asAkt3 (Q9Y243 whole entry M225G): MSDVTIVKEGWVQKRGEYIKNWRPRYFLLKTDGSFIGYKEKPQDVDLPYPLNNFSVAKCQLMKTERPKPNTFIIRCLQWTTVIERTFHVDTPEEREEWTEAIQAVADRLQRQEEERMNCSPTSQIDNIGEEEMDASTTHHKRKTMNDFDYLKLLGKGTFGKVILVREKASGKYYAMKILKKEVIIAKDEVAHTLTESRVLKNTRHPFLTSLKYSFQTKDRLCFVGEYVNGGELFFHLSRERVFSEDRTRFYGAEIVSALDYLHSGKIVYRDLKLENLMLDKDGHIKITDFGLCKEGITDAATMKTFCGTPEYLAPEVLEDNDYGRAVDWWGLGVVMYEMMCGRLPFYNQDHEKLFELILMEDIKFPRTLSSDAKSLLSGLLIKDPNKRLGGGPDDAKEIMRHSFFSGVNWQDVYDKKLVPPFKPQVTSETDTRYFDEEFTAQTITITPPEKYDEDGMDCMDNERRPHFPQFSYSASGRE
# [9] = test system: HA-asAkt1 and flag-wtAkt1 (Thr308, Ser473) phosphorylation; type: cell-based, Human; settings: 30 min, various concentrations
# myr-HA-wtAkt3 = myr-HA-wtAkt3 (Homo sapiens, UniProt Q9Y243); assay: In vitro IP kinase assay for Akt variants; type: biochemical; settings: myr-HA-wtAkt3 expressed in HEK293T cells, immunoprecipitated; 50 µM ATP
# Sequence of myr-HA-wtAkt3 (Q9Y243 whole entry): as the sequence (Q9Y243 whole entry M225G) above, with G225M counted along it
# myr-HA-wtAkt2 = myr-HA-wtAkt2 (Homo sapiens, UniProt P31751); assay: In vitro IP kinase assay for Akt variants; type: biochemical; settings: myr-HA-wtAkt2 expressed in HEK293T cells, immunoprecipitated; 50 µM ATP
# Sequence of myr-HA-wtAkt2 (P31751 whole entry): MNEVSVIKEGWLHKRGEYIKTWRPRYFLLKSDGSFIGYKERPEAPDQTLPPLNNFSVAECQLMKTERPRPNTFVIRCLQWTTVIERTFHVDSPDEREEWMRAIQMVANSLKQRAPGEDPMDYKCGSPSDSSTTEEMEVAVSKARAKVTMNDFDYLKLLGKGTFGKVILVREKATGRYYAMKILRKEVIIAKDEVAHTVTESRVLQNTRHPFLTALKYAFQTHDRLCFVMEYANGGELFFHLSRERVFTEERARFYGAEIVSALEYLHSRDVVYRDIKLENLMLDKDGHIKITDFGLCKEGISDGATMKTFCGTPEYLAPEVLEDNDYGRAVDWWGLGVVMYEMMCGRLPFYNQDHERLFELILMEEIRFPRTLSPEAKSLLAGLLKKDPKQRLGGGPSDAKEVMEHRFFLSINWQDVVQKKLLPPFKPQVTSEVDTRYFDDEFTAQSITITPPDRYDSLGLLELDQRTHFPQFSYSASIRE
# myr-HA-asAkt1 = myr-HA-asAkt1 (Homo sapiens, UniProt P31749, M227G); assay: In vitro IP kinase assay for Akt variants; type: biochemical; settings: myr-HA-asAkt1 expressed in HEK293T cells, immunoprecipitated; 50 µM ATP
# Sequence of myr-HA-asAkt1 (P31749 whole entry M227G): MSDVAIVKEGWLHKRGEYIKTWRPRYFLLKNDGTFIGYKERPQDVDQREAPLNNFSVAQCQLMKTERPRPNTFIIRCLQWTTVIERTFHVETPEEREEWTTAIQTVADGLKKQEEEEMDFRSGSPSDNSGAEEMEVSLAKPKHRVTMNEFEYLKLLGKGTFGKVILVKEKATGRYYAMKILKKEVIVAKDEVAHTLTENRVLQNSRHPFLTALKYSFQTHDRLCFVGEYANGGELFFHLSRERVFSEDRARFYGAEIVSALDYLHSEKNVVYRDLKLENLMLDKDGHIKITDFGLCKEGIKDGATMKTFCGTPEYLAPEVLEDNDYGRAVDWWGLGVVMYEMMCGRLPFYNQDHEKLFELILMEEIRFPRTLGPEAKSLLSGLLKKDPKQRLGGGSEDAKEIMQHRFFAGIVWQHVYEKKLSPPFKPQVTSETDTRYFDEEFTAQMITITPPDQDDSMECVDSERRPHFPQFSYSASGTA
# myr-HA-asAkt2 = myr-HA-asAkt2 (Homo sapiens, UniProt P31751, M229G); assay: In vitro IP kinase assay for Akt variants; type: biochemical; settings: myr-HA-asAkt2 expressed in HEK293T cells, immunoprecipitated; 50 µM ATP
# Sequence of myr-HA-asAkt2 (P31751 whole entry M229G): as the sequence (P31751 whole entry) above, with M229G counted along it
# myr-HA-wtAkt1 = myr-HA-wtAkt1 (Homo sapiens, UniProt P31749); assay: In vitro IP kinase assay for Akt variants; type: biochemical; settings: myr-HA-wtAkt1 expressed in HEK293T cells, immunoprecipitated; 50 µM ATP
# Sequence of myr-HA-wtAkt1 (P31749 whole entry): as the sequence (P31749 whole entry M227G) above, with G227M counted along it
smiles,measurement,setting,value
CC(C)(C)n1nc(Cc2cccc(I)c2)c2c(N)ncnc21 [3-IB-PP1],hyperphosphorylation on Thr308 and Ser473 of kinase dead mutants,[1],induced striking hyperphosphorylation
same,Akt phosphorylation at Thr308 and Ser473,[2],unperturbed
same,phosphorylation on GSK3β at Ser9,[2],unperturbed
same,HA-asAkt1 hyperphosphorylation,[3],induced
same,phosphorylation level of Ser9 on GSK3β,[4],decreased
Cc1n[nH]c2ccc(-c3cncc(OC[C@@H](N)Cc4c[nH]c5ccccc45)c3)cc12 [A-443654],tumor growth,PC-3 tumor,inhibit the growth
same,location of Akt,"[5]; 2.5 µM, 15 min, no growth factor stimulation",translocation of Akt to the plasma membrane
same,tumor growth,3T3-Akt1 tumor,inhibit the growth
same,Akt phosphorylation at Thr308 and Ser473,[2],induced
same,phosphorylation on GSK3β at Ser9,[2],potently inhibited
same,tumor growth,MiaPaCa-2 tumor,inhibit the growth
"O=c1[nH]c2ccccc2n1C1CCN(Cc2ccc(-c3nc4cc5nc[nH]c5cc4nc3-c3ccccc3)cc2)CC1 [Akti-1,2]",hyperphosphorylation induced by PrINZ (Thr308 and Ser473),[6],dose-dependent inhibition
O=C(NCCCNc1nc(Nc2cccc(NC(=O)N3CCCC3)c2)ncc1I)c1cccs1 [BX-795],PrINZ induced Thr308 phosphorylation,[6],significant decrease
same,PrINZ induced hyperphosphorylation at Ser473,[6],reduced
same,selectivity in panel of 220 kinases,220 purified kinases,selective for only PDK1 within the PI3K-mTORC1 pathway
COc1ccccc1N1CCN(c2ncnc3[nH]nc(Br)c23)CC1 [DG2],Akt phosphorylation at Thr308 and Ser473,[7],does not induce
"CCn1c(-c2nonc2N)nc2c(C#CC(C)(C)O)ncc(OC[C@H]3CCCNC3)c21 [GSK690693, 4-(2-(4-amino-1,2,5-oxadiazol-3-yl)-1-ethyl-7-{[(3S)-3-piperidinylmethyl]oxy}-1H-imidazo[4,5-c]pyridin-4-yl)-2-methyl-3-butyn-2-ol]",Akt hyperphosphorylation,Akt,induces Akt hyperphosphorylation
COc1ccc2c(c1OC)N=C(NC(=O)c1cccnc1)N1CCN=C21 [PIK90],hyperphosphorylation induced by PrINZ (Thr308 and Ser473),[6],significantly attenuated
same,A-443654 induced translocation and Thr308 phosphorylation of Akt,[5]; 2.5 µM PIK90 10 min before 2.5 µM A-443654 15 min,inhibited
same,hyperphosphorylation on myr-HA-asAkt1,[8],not inhibited
CC(C)n1nc(-c2cc3cc(O)ccc3[nH]2)c2c(N)ncnc21 [PP242],PrINZ induced Thr308 phosphorylation,[6],unaffected
same,PrINZ induced hyperphosphorylation at Ser473,[6],completely inhibited
CCCc1cc(-c2cncc(OC[C@@H](N)Cc3c[nH]c4ccccc34)c2)cc2c(C)n[nH]c12 [PrINZ],IC50 (nM) asAkt3,myr-HA-asAkt3,low nanomolar range
same,Thr308 and Ser473 phosphorylation after immunoprecipitation,[9],induced only on HA-asAkt1
same,IC50 (nM) wtAkt3,myr-HA-wtAkt3,did not inhibit
same,hyperphosphorylation on Thr308 and Ser473 of kinase dead mutants,[1],induced striking hyperphosphorylation
same,IC50 (nM) wtAkt2,myr-HA-wtAkt2,did not inhibit
same,Akt phosphorylation at Thr308 and Ser473,[2],unperturbed
same,phosphorylation on GSK3β at Ser9,[2],unperturbed
same,HA-asAkt1 hyperphosphorylation,[3],induced
same,phosphorylation level of Ser9 on GSK3β,[4],decreased
same,IC50 (nM) asAkt1,myr-HA-asAkt1,low nanomolar range
same,IC50 (nM) asAkt2,myr-HA-asAkt2,low nanomolar range
same,IC50 (nM) wtAkt1,myr-HA-wtAkt1,did not inhibit
